Results as given in patent publication US4356119A, “Therapeutically active polypeptides or acid addition salts and a process for producing such compounds” (Nordisk Insulinlaboratorium, priority 1978, dated 1982).
Where a SMILES comes first, the peptide text is derived from it.

How the values were obtained:
Langerhan's islets = experiment: glucose stimulated insulin secretion from isolated Langerhan's islets; assay type: cell-based; conditions: 10 mM glucose, hydrochlorides
Procedure: In vitro determination of the effect of the peptides on the glucose stimulated insulin secretion was carried out on Langerhan's islets isolated by collagenase technique and preincubated 24 hours at 37° C. Secretion tests were conducted with 10 mM of glucose and three peptide concentrations.
All peptides have been tested in the form of their hydrochlorides together with 10 mM of glucose, and the values are calculated as a percentage of the effect of 10 mM of glucose alone.

fat cells = experiment: insulin potentiating effect on glucose metabolism in isolated fat cells; assay type: cell-based; conditions: 50 ng/ml insulin + 0 μg/ml peptide = 100%
Text: In vitro determination of the insulin potentiating effect of the peptides on the metabolism of glucose has given the following results, the general methods being described elsewhere (3).
All other values are based on this.

[1] = pharmacological dosages; Enk et al. (6); cited from earlier work
[2] = insulin 0 ng/ml, peptide 100 μg/ml
[3] = insulin 0.6 ng/ml, peptide 100 μg/ml
[4] = insulin 50 ng/ml, peptide 100 μg/ml
[5] = insulin 0 ng/ml, peptide 0.01 μg/ml
[6] = insulin 0 ng/ml, peptide 0.1 μg/ml
[7] = insulin 0 ng/ml, peptide 1 μg/ml
[8] = insulin 0 ng/ml, peptide 10 μg/ml
[9] = insulin 0.6 ng/ml, peptide 0.01 μg/ml
[10] = insulin 0.6 ng/ml, peptide 0.1 μg/ml
[11] = insulin 0.6 ng/ml, peptide 1 μg/ml
[12] = insulin 0.6 ng/ml, peptide 10 μg/ml
[13] = insulin 50 ng/ml, peptide 0.01 μg/ml
[14] = insulin 50 ng/ml, peptide 0.1 μg/ml
[15] = insulin 50 ng/ml, peptide 1 μg/ml
[16] = insulin 50 ng/ml, peptide 10 μg/ml

| Compound | glucose stimulated insulin secretion, percentage of the effect of 10 mM of glucose alone (Langerhan's islets) | glucose stimulated insulin secretion, percentage of the effect of 10 mM of glucose alone (Langerhan's islets; peptide 5 mmolar) | glucose stimulated insulin secretion, percentage of the effect of 10 mM of glucose alone (Langerhan's islets; peptide 5 × 10^-2 mmolar) | glucose metabolism in fat cells (fat cells; [2]) | glucose metabolism in fat cells (fat cells; [3]) | glucose metabolism in fat cells (fat cells; [4]) | glucose metabolism in fat cells (fat cells; [5]) | glucose metabolism in fat cells (fat cells; [6]) | glucose metabolism in fat cells (fat cells; [7]) | glucose metabolism in fat cells (fat cells; [8]) | glucose metabolism in fat cells (fat cells; [9]) | glucose metabolism in fat cells (fat cells; [10]) | glucose metabolism in fat cells (fat cells; [11]) | glucose metabolism in fat cells (fat cells; [12]) | glucose metabolism in fat cells (fat cells; [13]) | glucose metabolism in fat cells (fat cells; [14]) | glucose metabolism in fat cells (fat cells; [15]) | glucose metabolism in fat cells (fat cells; [16]) | blood sugar level [1] | secretion of insulin [1] |
| --- | --- | --- | --- | --- | --- | --- | --- | --- | --- | --- | --- | --- | --- | --- | --- | --- | --- | --- | --- | --- |
| glu-leu-ser-arg-leu-arg-asp-ser-ala-arg-OMe, 4HCl [compound 4] | 41% | 9% | 96% | – | – | – | – | – | – | – | – | – | – | – | – | – | – | – | – | – |
| COC(=O)[C@H](CCCNC(=N)N)NC(=O)CNC(=O)CNC(=O)CNC(=O)[C@@H](N)CCC(=O)O [compound 6, glugly-gly-gly-arg-OMe, 2HCl] (H-EGGGR-OMe) | – | – | – | 10% | 89% | 121% | – | – | – | – | – | – | – | – | – | – | – | – | – | – |
| glu-leu-ser-arg-leu-arg-OMe, 3HCl [compound 2] | 73% | 113% | 66% | 15% | 55% | 70% | 20% | 20% | 21% | 20% | 83% | 88% | 86% | 85% | 114% | 112% | 108% | 112% | – | – |
| secretin | – | – | – | – | – | – | – | – | – | – | – | – | – | – | – | – | – | – | without affecting the blood sugar level | potentiate secretion of insulin |
| glu-leu-ser-arg-OMe, 2HCl [compound 1] | 59% | 51% | 76% | 22% | 108% | 126% | 22% | 22% | 22% | 22% | 94% | 90% | 88% | 91% | 118% | 113% | 112% | 113% | – | – |
| COC(=O)[C@H](CCCNC(=N)N)NC(=O)[C@H](C)NC(=O)[C@H](CO)NC(=O)[C@@H](N)CC(=O)O [compound 3, asp-ser-ala-arg-OMe, 2HCl] (H-DSAR-OMe) | – | – | – | 16% | 100% | 124% | 8% | 8% | 8% | 8% | 90% | 85% | 80% | 80% | 114% | 112% | 108% | 108% | – | – |
